Data from ChEMBL document CHEMBL1127451, “Benzoselenazolinone derivatives designed to be glutathione peroxidase mimetics feature inhibition of cyclooxygenase/5-lipoxygenase pathways and anti-inflammatory activity” (1994).

How the values were obtained:
[1] = Inhibition of [Fe(2+)]/ascorbate-induced lipid peroxidation at 10e-5 M in rat brain homogenate
[2] = In vitro glutathione peroxidase activity at 2*10e-7M using tert-butyl hydroperoxide, activity given in percentage of ebselen''s activity; format: functional
[3] = In vitro glutathione peroxidase activity at 2*10e-7M using hydrogen peroxide, activity given in percentage of ebselen''s activity; format: functional
[4] = Inhibition of spontaneous lipid peroxidation at 10e-5 M in rat brain homogenate

Which inhibition [1] does the source give for `CN(C)C(=O)Nc1ccccc1[Se][Se]c1ccccc1NC(=O)N(C)C` here?
Its inhibition is 97%.

What about the GSH-Px activity [2] of the same compound?
The GSH-Px activity was 178.

What about the GSH-Px activity [3] of the same compound?
Its GSH-Px activity is 236.

What about the inhibition [4] of the same compound?
The inhibition was 96%.

With `Nc1ccc(C(O)c2ccccc2)cc1[Se][Se]c1cc(C(O)c2ccccc2)ccc1N` (centres undefined) as the compound, how does the inhibition [1] read?
The inhibition was 97%.

What about the GSH-Px activity [2] of the same compound?
The GSH-Px activity was 245.

What about the GSH-Px activity [3] of the same compound?
The GSH-Px activity was 54.

What about the inhibition [4] of the same compound?
Its inhibition is 92%.

With `Cn1c(=O)[se]c2cc(C(=O)c3ccc(Cl)cc3)ccc21` as the compound, how does the inhibition [1] read?
Its inhibition is 2%.

What about the GSH-Px activity [2] of the same compound?
Its GSH-Px activity is 0.

What about the GSH-Px activity [3] of the same compound?
The GSH-Px activity was 0.

And the inhibition [4]?
The inhibition was -3%.

For `CNc1ccc(C(=O)c2ccccc2)cc1[Se][Se]c1cc(C(=O)c2ccccc2)ccc1NC`, which inhibition [1] is on record?
Its inhibition is 100%.

And the GSH-Px activity [2]?
The GSH-Px activity was 298.

What about the GSH-Px activity [3] of the same compound?
Its GSH-Px activity is 68.

And the inhibition [4]?
Its inhibition is 100%.

With `CCCC(=O)c1ccc2[nH]c(=O)[se]c2c1` as the compound, how does the inhibition [1] read?
Its inhibition is -2%.

What about the GSH-Px activity [2] of the same compound?
The GSH-Px activity was 0.

And the GSH-Px activity [3]?
Its GSH-Px activity is 0.

And the inhibition [4]?
Its inhibition is -3%.

For `CC(=O)c1ccc2[nH]c(=O)[se]c2c1`, which inhibition [1] is on record?
Its inhibition is 6%.

What about the GSH-Px activity [2] of the same compound?
Its GSH-Px activity is 12.

What about the GSH-Px activity [3] of the same compound?
The GSH-Px activity was 0.

What about the inhibition [4] of the same compound?
The inhibition was 1%.

With `CNc1ccccc1[Se][Se]c1ccccc1NC` as the compound, how does the inhibition [1] read?
The inhibition was 37%.

And the GSH-Px activity [2]?
Its GSH-Px activity is 267.

And the GSH-Px activity [3]?
Its GSH-Px activity is 325.

And the inhibition [4]?
Its inhibition is 52%.

With `Nc1ccc(Cc2ccccc2)cc1[Se][Se]c1cc(Cc2ccccc2)ccc1N` as the compound, how does the inhibition [1] read?
The inhibition was 97%.

And the GSH-Px activity [2]?
Its GSH-Px activity is 242.

What about the GSH-Px activity [3] of the same compound?
Its GSH-Px activity is 227.

And the inhibition [4]?
Its inhibition is 91%.

With `O=c1[nH]c2ccc(C(O)c3ccccc3)cc2[se]1` (centres undefined) as the compound, how does the inhibition [1] read?
Its inhibition is -1%.

And the GSH-Px activity [2]?
The GSH-Px activity was 10.

What about the GSH-Px activity [3] of the same compound?
The GSH-Px activity was 0.

What about the inhibition [4] of the same compound?
Its inhibition is -1%.

What does the source list for `CCCC(=O)c1ccc2c(c1)[se]c(=O)n2C`?
inhibition [1]: -3%; GSH-Px activity [2]: 0; GSH-Px activity [3]: 0; inhibition [4]: 2%

Which inhibition [1] does the source give for `Cn1c(=O)[se]c2cc(C(=O)c3cccnc3)ccc21` here?
The inhibition was 1%.

What about the GSH-Px activity [2] of the same compound?
The GSH-Px activity was 0.

What about the GSH-Px activity [3] of the same compound?
The GSH-Px activity was 0.

What about the inhibition [4] of the same compound?
The inhibition was 4%.

For `CN(C)C(=O)Nc1ccc(C(=O)c2ccccc2)cc1[Se][Se]c1cc(C(=O)c2ccccc2)ccc1NC(=O)N(C)C`, which inhibition [1] is on record?
The inhibition was 99%.

And the GSH-Px activity [2]?
Its GSH-Px activity is 212.

What about the GSH-Px activity [3] of the same compound?
Its GSH-Px activity is 212.

What about the inhibition [4] of the same compound?
Its inhibition is 98%.

For `CC(C)(Sc1cc(C(C)(C)C)c(O)c(C(C)(C)C)c1)Sc1cc(C(C)(C)C)c(O)c(C(C)(C)C)c1`, which GSH-Px activity [2] is on record?
The GSH-Px activity was 0.

What does the source list for `Nc1ccc(C(=O)c2ccc(Cl)cc2)cc1[Se][Se]c1cc(C(=O)c2ccc(Cl)cc2)ccc1N`?
inhibition [1]: 100%; GSH-Px activity [2]: 279; GSH-Px activity [3]: 116; inhibition [4]: 100%

Which inhibition [1] does the source give for `O=C(c1cccnc1)c1ccc2[nH]c(=O)[se]c2c1` here?
Its inhibition is -8%.

What about the GSH-Px activity [2] of the same compound?
The GSH-Px activity was 0.

What about the GSH-Px activity [3] of the same compound?
Its GSH-Px activity is 0.

What about the inhibition [4] of the same compound?
Its inhibition is -5%.

Which results are given for `Cn1c(=O)[se]c2cc(C(=O)c3ccccc3)ccc21`?
inhibition [1]: -3%; GSH-Px activity [2]: 0; GSH-Px activity [3]: 0; inhibition [4]: -1%

Which results are given for `O=c1[nH]c2ccc(Cc3ccccc3)cc2[se]1`?
inhibition [1]: -7%; GSH-Px activity [2]: -1; GSH-Px activity [3]: 0.7; inhibition [4]: -6%

With `CC(=O)c1ccc(N)c([Se][Se]c2cc(C(C)=O)ccc2N)c1` as the compound, how does the inhibition [1] read?
The inhibition was 99%.

And the GSH-Px activity [2]?
The GSH-Px activity was 238.

And the GSH-Px activity [3]?
Its GSH-Px activity is 247.

What about the inhibition [4] of the same compound?
The inhibition was 100%.

With `Cc1c(C)c2c(c(C)c1O)CCC(C)(C(=O)O)O2` (centres undefined) as the compound, how does the GSH-Px activity [2] read?
The GSH-Px activity was 0.

Which results are given for `O=C(c1ccc(Cl)cc1)c1ccc2[nH]c(=O)[se]c2c1`?
inhibition [1]: 5%; GSH-Px activity [2]: 0; GSH-Px activity [3]: 0; inhibition [4]: -5%
